According to patent US8022209B2, “Substituted nitrogen-containing heteroaryl derivatives useful as modulators of the histamine H4 receptor” (Janssen Pharmaceutica NV, priority 2007, dated 2011):

Target: T1, human histamine H4 receptor (Homo sapiens, UniProt Q9H3N8)
T1 construct: expressed in transfected cells; host or cells: SK-N-MC cells or COS7 cells, transiently transfected with pH4R; cell membranes
Test: Binding Assay on Recombinant Human Histamine H4 Receptor
Settings: competition binding vs 3H-histamine (5 nM, KD 5 nM), membranes of SK-N-MC or COS7 cells transfected with human H4R; Cheng-Prusoff; average of results obtained
Protocol: Binding Assay on Recombinant Human Histamine H4 Receptor
SK-N-MC cells or COS7 cells were transiently transfected with pH4R and grown in 150 cm^2 tissue culture dishes. Cells were washed with saline solution, scraped with a cell scraper and collected by centrifugation (1000 rpm, 5 min). Cell membranes were prepared by homogenization of the cell pellet in 20 mM Tris-HCl with a polytron tissue homogenizer for 10 sec at high speed. Homogenate was centrifuged at 1000 rpm for 5 min at 4° C. The supernatant was then collected and centrifuged at 20,000×g for 25 min at 4° C. The final pellet was resuspended in 50 mM Tris-HCl. Cell membranes were incubated with ^3H-histamine (5-70 nM) in the presence or absence of excess histamine (10,000 nM). Incubation occurred at room temperature for 45 min. Membranes were harvested by rapid filtration over Whatman GF/C filters and washed 4 times with ice-cold 50 mM Tris HCl. Filters were then dried, mixed with scintillant and counted for radioactivity. SK-N-MC or COS7 cells expressing human histamine H4 receptor were used to measure the affinity of binding of other compounds and their ability to displace ^3H-ligand binding by incubating the above-described reaction in the presence of various concentrations of inhibitor or compound to be tested. For competition binding studies using ^3H-histamine, Ki values were calculated, based on an experimentally determined KD value of 5 nM and a ligand concentration of 5 nM, according to Y. C.

| Ki [µM] | Compound |
| --- | --- |
| 0.044 | CN1CCN(c2ncnc(-c3ccsc3)n2)CC1 [compound 1, 2-(4-Methyl-piperazin-1-yl)-4-thiophen-3-yl-[1,3,5]triazine] |
| 0.076 | CN1CCN(c2ncnc(-c3cccs3)n2)CC1 [compound 2, 2-(4-Methyl-piperazin-1-yl)-4-thiophen-2-yl-[1,3,5]triazine] |
| 0.022 | Cc1ccc(-c2ncnc(N3CCN(C)CC3)n2)cc1F [compound 3, 2-(3-Fluoro-4-methyl-phenyl)-4-(4-methyl-piperazin-1-yl)-[1,3,5]triazine] |
| 0.075 | Cc1ccc(-c2ncnc(N3CCN(C)CC3)n2)cc1 [compound 4, 2-(4-Methyl-piperazin-1-yl)-4-p-tolyl-[1,3,5]triazine] |
| 0.033 | CN1CCN(c2ncnc(-c3ccc(F)c(F)c3)n2)CC1 [compound 5, 2-(3,4-Difluoro-phenyl)-4-(4-methyl-piperazin-1-yl)-[1,3,5]triazine] |
| 0.115 | CN1CCN(c2ncnc(-c3ccoc3)n2)CC1 [compound 6, 2-Furan-3-yl-4-(4-methyl-piperazin-1-yl)-[1,3,5]triazine] |
| 0.087 | CN1CCN(c2ncnc(-c3cccc(F)c3)n2)CC1 [compound 7, 2-(3-Fluoro-phenyl)-4-(4-methyl-piperazin-1-yl)-[1,3,5]triazine] |
| 0.073 | CN1CCN(c2ncnc(-c3cccc(C(F)(F)F)c3)n2)CC1 [compound 8, 2-(4-Methyl-piperazin-1-yl)-4-(3-trifluoromethyl-phenyl)-[1,3,5]triazine] |
| 0.022 | CN1CCN(c2ncnc(-c3cc(Br)cs3)n2)CC1 [compound 9] |
| 0.036 | CN1CCN(c2ncnc(-c3ccc(Br)cc3)n2)CC1 [compound 10, 2-(4-Bromo-phenyl)-4-(4-methyl-piperazin-1-yl)-[1,3,5]triazine] |
| 0.007 | CN1CCN(c2ncnc(-c3cc(F)c(F)c(F)c3)n2)CC1 [compound 11, 2-(4-Methyl-piperazin-1-yl)-4-(3,4,5-trifluoro-phenyl)-[1,3,5]triazine] |
| 0.035 | CN1CCN(c2ncnc(-c3ccc(F)cc3)n2)CC1 [compound 12, 2-(4-Fluoro-phenyl)-4-(4-methyl-piperazin-1-yl)-[1,3,5]triazine] |
| 0.01 | CN1CCN(c2ncnc(-c3ccc(Cl)cc3)n2)CC1 [compound 13, 2-(4-Chloro-phenyl)-4-(4-methyl-piperazin-1-yl)-[1,3,5]triazine] |
| 0.03 | CN1CCN(c2ncnc(-c3ccc(Cl)c(Cl)c3)n2)CC1 [compound 14, 2-(3,4-Dichloro-phenyl)-4-(4-methyl-piperazin-1-yl)-[1,3,5]triazine] |
| 0.002 | CN1CCN(c2ncnc(-c3sccc3Br)n2)CC1 [compound 15, 2-(3-Bromo-thiophen-2-yl)-4-(4-methyl-piperazin-1-yl)-[1,3,5]triazine] |
| 0.05 | CN1CCN(c2ncnc(-c3ccc(Cl)nc3)n2)CC1 [compound 16, 2-(6-Chloro-pyridin-3-yl)-4-(4-methyl-piperazin-1-yl)-[1,3,5]triazine] |
| 0.008 | CN1CCN(c2ncnc(-c3sccc3Cl)n2)CC1 [compound 17, 2-(3-Chloro-thiophen-2-yl)-4-(4-methyl-piperazin-1-yl)-[1,3,5]triazine] |
| 0.037 | CN1CCN(c2ncnc(-c3ccc(Br)s3)n2)CC1 [compound 18, 2-(5-Bromo-thiophen-2-yl)-4-(4-methyl-piperazin-1-yl)-[1,3,5]triazine] |
| 0.172 | CN1CCN(c2ncnc(-c3cccnc3)n2)CC1 [compound 19, 2-(4-Methyl-piperazin-1-yl)-4-pyridin-3-yl-[1,3,5]triazine] |
| 0.95 | CN1CCN(c2ncnc(-c3ccncc3)n2)CC1 [compound 20, 2-(4-Methyl-piperazin-1-yl)-4-pyridin-4-yl-[1,3,5]triazine] |
| 2.33 | CN1CCN(c2ncnc(-c3cc4ccccc4s3)n2)CC1 [compound 21, 2-Benzo[b]thiophen-2-yl-4-(4-methyl-piperazin-1-yl)-[1,3,5]triazine] |
| 0.757 | Cc1cc(-c2ncnc(N3CCN(C)CC3)n2)c(C(F)(F)F)o1 [compound 22, 2-(4-Methyl-piperazin-1-yl)-4-(5-methyl-2-trifluoromethyl-furan-3-yl)-[1,3,5]triazine] |
| 0.031 | Cc1nc(-c2sccc2Br)nc(N2CCN(C)CC2)n1 [compound 23, 2-(3-Bromo-thiophen-2-yl)-4-methyl-6-(4-methyl-piperazin-1-yl)-[1,3,5]triazine] |
| 0.267 | CN1CCCN(c2ncnc(-c3sccc3Br)n2)CC1 [compound 24, 1-[4-(3-Bromo-thiophen-2-yl)-[1,3,5]triazin-2-yl]-4-methyl-[1,4]diazepane] |
| 0.066 | CN1CCN(c2ncnc(-c3ccc(Cl)s3)n2)CC1 [compound 25, 2-(5-Chloro-thiophen-2-yl)-4-(4-methyl-piperazin-1-yl)-[1,3,5]triazine] |
| 0.037 | CN1CCN(c2ccnc(-c3ccsc3)c2)CC1 [compound 26] |
| 0.087 | CN1CCN(c2ccnc(-c3ccco3)c2)CC1 [compound 27] |

| Ki [µM] | Compound |
| --- | --- |
| 0.025 | CN1CCN(c2ccnc(-c3ccoc3)c2)CC1 [compound 28] |
| 0.064 | Cc1cscc1-c1cc(N2CCN(C)CC2)ccn1 [compound 29] |
| 0.138 | CN1CCN(c2ccnc(-c3ccc(F)c(Cl)c3)c2)CC1 [compound 30] |
| 0.075 | Cc1ccc(-c2cc(N3CCN(C)CC3)ccn2)cc1F [compound 31] |
| 0.129 | Cc1ccc(-c2cc(N3CCN(C)CC3)ccn2)cc1 [compound 32] |
| 0.577 | CN1CCN(c2ccnc(-c3cccc(O)c3)c2)CC1 [compound 33] |
| 0.09 | CN1CCN(c2ccnc(-c3ccc(F)c(F)c3)c2)CC1 [compound 34] |
| 0.13 | CN1CCN(c2ccnc(-c3cccc(Cl)c3Cl)c2)CC1 [compound 35] |
| 0.065 | Cc1ccc(-c2cc(N3CCN(C)CC3)ccn2)cc1Cl [compound 37] |
| 0.052 | CN1CCN(c2ccnc(-c3cccc(-c4ccccc4)c3)c2)CC1 [compound 38] |
| 0.433 | CN1CCCN(c2ccnc(-c3ccsc3)c2)CC1 [compound 39] |
| 0.867 | CN1CCC(N(C)c2ccnc(-c3ccsc3)c2)C1 (stereo not drawn) [compound 40] |
| 2.6 | CN(C)CCN(C)c1ccnc(-c2ccsc2)c1 [compound 41] |
| 0.767 | CN(C)C1CCN(c2ccnc(-c3ccsc3)c2)C1 (stereo not drawn) [compound 42] |
| 0.397 | CN1CCCN(c2cc(-c3cccs3)ncn2)CC1 [compound 68] |
| 1.93 | CN1CCN(c2ncnc(-c3cccc(-c4ccccc4)c3)n2)CC1 [compound 108, 2-Biphenyl-3-yl-4-(4-methyl-piperazin-1-yl)-[1,3,5]triazine] |
| 1.51 | CN1CCN(c2ncnc(-c3cccc4ccccc34)n2)CC1 [compound 112, 2-(4-Methyl-piperazin-1-yl)-4-naphthalen-1-yl-[1,3,5]triazine] |
| 0.111 | Cc1cc(-c2ncnc(N3CCN(C)CC3)n2)ccc1F [compound 115, 2-(4-Fluoro-3-methyl-phenyl)-4-(4-methyl-piperazin-1-yl)-[1,3,5]triazine] |
| > 10 | CN1CCN(c2ncnc(-c3ccc(-c4ccccc4)cc3)n2)CC1 [compound 116, 2-Biphenyl-4-yl-4-(4-methyl-piperazin-1-yl)-[1,3,5]triazine] |
| > 10 | CN1CCN(c2ncnc(-c3ccc4ccccc4c3)n2)CC1 [compound 117, 2-(4-Methyl-piperazin-1-yl)-4-naphthalen-2-yl-[1,3,5]triazine] |
| 0.128 | CN1CCN(c2ncnc(-c3ccccc3)n2)CC1 [compound 118, 2-(4-Methyl-piperazin-1-yl)-4-phenyl-[1,3,5]triazine] |
| 0.107 | CN1CCN(c2ncnc(-c3ccc([N+](=O)[O-])cc3)n2)CC1 [compound 121, 2-(4-Methyl-piperazin-1-yl)-4-(4-nitro-phenyl)-[1,3,5]triazine] |
| 0.094 | CN1CCN(c2ncnc(-c3ccc(F)cc3F)n2)CC1 [compound 122, 2-(2,4-Difluoro-phenyl)-4-(4-methyl-piperazin-1-yl)-[1,3,5]triazine] |
| 0.06 | Cc1ccc(F)cc1-c1ncnc(N2CCN(C)CC2)n1 [compound 123, 2-(5-Fluoro-2-methyl-phenyl)-4-(4-methyl-piperazin-1-yl)-[1,3,5]triazine] |
| 0.443 | CN1CCN(c2ccnc(-c3csc(C#N)c3)c2)CC1 [compound 129] |
| 0.643 | COc1cscc1-c1ncnc(N2CCN(C)CC2)n1 [compound 130, 2-(4-Methoxy-thiophen-3-yl)-4-(4-methyl-piperazin-1-yl)-[1,3,5]triazine] |

| Compound | Ki [µM] |
| --- | --- |
| CN1CCN(c2ccnc(-c3cccc(-c4ccc(C(=O)N5CCOCC5)cc4)c3)c2)CC1 [compound 63] | ≥ 10 |
| CNC1CCN(c2ccnc(-c3ccsc3)c2)C1 (stereo not drawn) [compound 66] | 0.216 |
| CN1CCN(c2ncnc(-c3cccc(C#N)c3)n2)CC1 [compound 111, 3-[4-(4-Methyl-piperazin-1-yl)-[1,3,5]triazin-2-yl]-benzonitrile] | 2.01 |
| CN1CCN(c2ncnc(-c3ccc(-c4ccccn4)s3)n2)CC1 [compound 131, 2-(4-Methyl-piperazin-1-yl)-4-(5-pyridin-2-yl-thiophen-2-yl)-[1,3,5]triazine] | > 10 |
